For one data set, the target named is T1, Aβ1-42 aggregates (Homo sapiens, UniProt P05067).
T1 construct: preparing Aβ1-42 proteins according to the known methods
In words: Competitive binding experiment with [125I]IMPY. The conditions noted are these: competition with [125I]IMPY, Aβ1-42, 37° C., 3 hours. How it is done: (1) formulating a 0.1% BSA solution with pH=7.4;
(2) preparing a radioligand [125I] IMPY according to the known methods; formulating [125I] IMPY into a solution of 60000-100000 cpm/100 μL for later use;
(3) formulating the compound to be tested into a 10^−5 to 10^−11 mol/L serially diluted ethanol solution;
(4) preparing Aβ1-42 proteins according to the known methods, and diluting it into an aqueous solution of about 30 nM;
(5) soaking a glass fiber filter membrane in PBS solution containing 0.1% polyethyleneimine for 30 minutes;
(6) adding 100 μL of the test compound solutions with different concentrations and 100 μL of [125I] IMPY solution, 700 μL of BSA solution and 100 μL of Aβ1-42 solution into a 12 mm×75 mm borosilicate glass tube, and vortexing;
(7) incubating with shaking in a constant temperature water bath at 37° C. for 3 hours;
(8) collecting the reaction solution by a multi-head cell collector, and rinsing the reaction solution for three times with 10% ethanol solution;
(9) measuring and counting with a gamma counter;
(10) analyzing and processing data using GraphPrad Prism 5.01 to obtain an affinity constant Ki.
Activity between some compounds and Aβ1-42 aggregates was quantitatively determined by the method.

The nature of data set [1]: Biodistribution experiment in normal mice. Format: in vivo, mice (ICR, male). The conditions noted are these: for biodistribution, blood / biodistribution, brain: normal ICR mice; for clearance from the brain / passage through the blood-brain barrier / time at which the brain uptake reaches its peak: normal mice; for time at which the brain uptake reaches its peak: after injection. How it is done: Pharmacokinetic properties in mice, especially the initial brain uptake and brain clearance, were studied through distribution experiments in vivo.
5-10 μCi labelled compounds (100 μL physiological saline solution, containing 10% ethanol) were injected into normal mice (ICR, male, 20-22 g, 5 weeks old) through the tail vein (n=5), and mice were decapitated at 2 minutes, 10 minutes, 30 minutes and 60 minutes after injection, respectively, and organs to be tested were took out by dissection, and the wet weight was measured and radioactive counting was conducted. Data is expressed as the percentage of radioactive dose per gram of organ (% ID/g).

The mark [2] stands for this setting: 2 min after tail vein injection.
Where [3] appears, read: 10 min after tail vein injection.
[4] abbreviates: 30 min after tail vein injection.
[5] abbreviates: 60 min after tail vein injection.

We go through 24 molecules from patent US20210393810A1, “DIHYDRAZONE COMPOUNDS HAVING HIGH AFFINITY TO A BETA PROTEIN AND TAU PROTEIN, DERIVATIVES THEREOF AND USE THEREOF” (HTA CO., LTD., priority 2019, published 2021).

T1 sequence (P05067 672-713): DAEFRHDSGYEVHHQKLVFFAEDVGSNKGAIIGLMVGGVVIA

As for `CNc1ccc(/C=N/N=C/c2ccc(NC)cc2)cc1` [Compound 9], affinity on Aβ1-42 aggregates was put at a Ki of 45.2 ± 18.4 nM.

For the molecule `CCN(CC)c1ccc(/C=N/N=C/c2ccc(N(CC)CC)cc2)cc1` [Compound 11], at Aβ1-42 aggregates, the Ki (as a rule, a measure of affinity in units of concentration, obtained from inhibition or displacement) was 5.1 ± 1.87 nM.

The molecule `C(=N\N=C\c1ccc(N2CCCC2)cc1)/c1ccc(N2CCCC2)cc1` [Compound 13] had a Ki on Aβ1-42 aggregates of 1.2 ± 0.25 nM.

On Aβ1-42 aggregates, `C(=N\N=C\c1ccc(N2CCCCC2)cc1)/c1ccc(N2CCCCC2)cc1` [Compound 14] came in with a Ki of 1.39 ± 0.25 nM.

`C(=N\N=C\c1ccc(N2CCOCC2)cc1)/c1ccc(N2CCOCC2)cc1` [Compound 15] returned a Ki on Aβ1-42 aggregates of 147 ± 2.06 nM.

The molecule `CN(C)c1ncc(/C=N/N=C/c2cnc(N(C)C)nc2)cn1` [Compound 17] had a Ki on Aβ1-42 aggregates of 124 ± 21.7 nM.

Molecule `CNc1ccc(/C=N/N=C/c2ccc(N(C)C)cc2)cc1` [Compound 36] yielded a Ki at Aβ1-42 aggregates of 35.1 ± 19.3 nM.

Regarding `CNc1ccc(/C=N/N=C/c2ccc(O)cc2)cc1` [Compound 63], affinity on Aβ1-42 aggregates was put at a Ki of 277 ± 50.5 nM.

With `CN(C)c1ccc(/C=N/N=C/c2ccc(OCCF)cc2)cc1` [Compound 87], at Aβ1-42 aggregates, affinity was put at a Ki of 5.17 ± 1.4 nM. Against the preceding molecule, the Ki is about 54-fold lower.

Regarding `CNc1ccc(/C=N/N=C/c2ccc(OCCF)cc2)cc1` [Compound 88], the affinity on Aβ1-42 aggregates, expressed as Ki, was 10.4 ± 6.71 nM.

Regarding `CN(C)c1ccc(/C=N/N=C/c2ccc(OCCOCCF)cc2)cc1` [Compound 89], on Aβ1-42 aggregates, the Ki was 2.45 ± 1.7 nM.

`CNc1ccc(/C=N/N=C/c2ccc(OCCOCCF)cc2)cc1` [Compound 90] registered a Ki at Aβ1-42 aggregates of 8.07 ± 2.89 nM.

For the molecule `CN(C)c1ccc(/C=N/N=C/c2ccc(OCCOCCOCCF)cc2)cc1` [Compound 91], the affinity on Aβ1-42 aggregates corresponds to a Ki of 6.38 ± 0.72 nM.

`CNc1ccc(/C=N/N=C/c2ccc(OCCOCCOCCF)cc2)cc1` [Compound 92] displayed a Ki at Aβ1-42 aggregates of 46.4 ± 15.5 nM.

On to `CN(C)c1ccc(/C=N/N=C/c2ccc(OCCOCCOCCF)nc2)cc1` [Compound 93], for which the affinity on Aβ1-42 aggregates, expressed as Ki, was 10.9 ± 0.97 nM.

For the molecule `CNc1ccc(/C=N/N=C/c2ccc(OCCOCCOCCF)nc2)cc1` [Compound 94], the Ki on Aβ1-42 aggregates was 42.9 ± 20.5 nM.

On to `CN(C)c1ccc(/C=N/N=C/c2ccc(OCC[18F])cc2)cc1` [[18F]87], for which, in data set [1] (setting [2]), the “biodistribution, blood” value is given as 3.98 ± 0.24 % ID/g and the “biodistribution, brain” value was found to be 10.66 ± 0.89 % ID/g. Besides, in data set [1] (setting [3]), the “biodistribution, blood” value is 3.36 ± 0.19 % ID/g and the “biodistribution, brain” value is 11.00 ± 0.80 % ID/g. In data set [1] (setting [4]), the “biodistribution, blood” value was 3.00 ± 0.13 % ID/g and the “biodistribution, brain” value worked out at 6.69 ± 0.42 % ID/g. In data set [1] (setting [5]), the “biodistribution, blood” value was 2.73 ± 0.42 % ID/g and the “biodistribution, brain” value came out at 4.56 ± 0.58 % ID/g. For the same molecule, in data set [1], the “clearance from the brain” value is given as “cleared faster in the brain of normal mice”, the “passage through the blood-brain barrier” value is on record as “can effectively pass through the blood-brain barrier” and the “time at which the brain uptake reaches its peak” value (shortened to “time”) stood at 2 min.

Consider `CNc1ccc(/C=N/N=C/c2ccc(OCC[18F])cc2)cc1` [[18F]88], for which, in data set [1] (setting [2]), the “biodistribution, blood” value was 3.32 ± 0.26 % ID/g and the “biodistribution, brain” value is reported as 9.21 ± 0.63 % ID/g. Moreover, in data set [1] (setting [3]), the “biodistribution, blood” value was 3.57 ± 0.34 % ID/g and the “biodistribution, brain” value amounted to 8.24 ± 0.36 % ID/g. Also, in data set [1] (setting [4]), the “biodistribution, blood” value was 3.31 ± 0.13 % ID/g and the “biodistribution, brain” value is reported as 4.81 ± 0.27 % ID/g. Also, in data set [1] (setting [5]), the “biodistribution, blood” value is on record as 2.90 ± 0.32 % ID/g and the “biodistribution, brain” value is given as 3.02 ± 0.15 % ID/g. Further, in data set [1], the “clearance from the brain” value is reported as “cleared faster in the brain of normal mice”, the “passage through the blood-brain barrier” value was “can effectively pass through the blood-brain barrier” and the “time” value was found to be 2 min.

As to `CN(C)c1ccc(/C=N/N=C/c2ccc(OCCOCC[18F])cc2)cc1` [[18F]89], in data set [1] (setting [2]), the “biodistribution, blood” value turned out to be 2.95 ± 0.31 % ID/g and the “biodistribution, brain” value stood at 10.88 ± 0.75 % ID/g. Besides, in data set [1] (setting [3]), the “biodistribution, blood” value worked out at 3.24 ± 1.25 % ID/g and the “biodistribution, brain” value turned out to be 10.62 ± 0.58 % ID/g. In data set [1] (setting [4]), the “biodistribution, blood” value came out at 4.78 ± 0.24 % ID/g and the “biodistribution, brain” value is listed as 6.06 ± 0.38 % ID/g. Also, in data set [1] (setting [5]), the “biodistribution, blood” value was found to be 5.42 ± 0.65 % ID/g and the “biodistribution, brain” value turned out to be 4.55 ± 0.48 % ID/g. In data set [1], the “clearance from the brain” value was “cleared faster in the brain of normal mice”, the “passage through the blood-brain barrier” value was “can effectively pass through the blood-brain barrier” and the “time” value amounted to 2 min.

Consider `CNc1ccc(/C=N/N=C/c2ccc(OCCOCC[18F])cc2)cc1` [[18F]90], for which the “biodistribution, blood” value amounted to 3.72 ± 0.44 % ID/g in data set [1] (setting [2]), 3.85 ± 0.26 % ID/g in data set [1] (setting [3]), 4.90 ± 0.61 % ID/g in data set [1] (setting [4]) and 5.44 ± 0.40 % ID/g in data set [1] (setting [5]). Moreover, the “biodistribution, brain” value was 11.05 ± 1.70 % ID/g in data set [1] (setting [2]), 7.81 ± 0.60 % ID/g in data set [1] (setting [3]), 4.92 ± 0.41 % ID/g in data set [1] (setting [4]) and 3.97 ± 0.28 % ID/g in data set [1] (setting [5]). Also, the “clearance from the brain” value in data set [1] was “cleared faster in the brain of normal mice”. For the same molecule, the “passage through the blood-brain barrier” value in data set [1] is on record as “can effectively pass through the blood-brain barrier”. For the same molecule, the “time” value in data set [1] stood at 2 min.

Turning to `CN(C)c1ccc(/C=N/N=C/c2ccc(OCCOCCOCC[18F])cc2)cc1` [[18F]91], in data set [1] (setting [2]), the “biodistribution, blood” value was found to be 3.08 ± 0.45 % ID/g and the “biodistribution, brain” value is on record as 10.39 ± 1.07 % ID/g. In data set [1] (setting [3]), the “biodistribution, blood” value is reported as 2.86 ± 0.28 % ID/g and the “biodistribution, brain” value is on record as 7.56 ± 0.91 % ID/g. In data set [1] (setting [4]), the “biodistribution, blood” value was 3.83 ± 0.27 % ID/g and the “biodistribution, brain” value came out at 2.93 ± 0.13 % ID/g. Moreover, in data set [1] (setting [5]), the “biodistribution, blood” value is recorded as 3.66 ± 0.40 % ID/g and the “biodistribution, brain” value amounted to 1.60 ± 0.10 % ID/g. For the same molecule, in data set [1], the “clearance from the brain” value is “cleared faster in the brain of normal mice”, the “passage through the blood-brain barrier” value is “can effectively pass through the blood-brain barrier” and the “time” value is 2 min.

For `CNc1ccc(/C=N/N=C/c2ccc(OCCOCCOCC[18F])cc2)cc1` [[18F]92], in data set [1] (setting [2]), the “biodistribution, blood” value was determined as 3.81 ± 0.35 % ID/g and the “biodistribution, brain” value turned out to be 7.84 ± 0.50 % ID/g. Further, in data set [1] (setting [3]), the “biodistribution, blood” value worked out at 3.06 ± 0.49 % ID/g and the “biodistribution, brain” value amounted to 3.94 ± 0.13 % ID/g. Further, in data set [1] (setting [4]), the “biodistribution, blood” value worked out at 3.26 ± 0.17 % ID/g and the “biodistribution, brain” value is 1.88 ± 0.03 % ID/g. Moreover, in data set [1] (setting [5]), the “biodistribution, blood” value is 3.05 ± 0.45 % ID/g and the “biodistribution, brain” value came out at 1.17 ± 0.07 % ID/g. Further, in data set [1], the “clearance from the brain” value is “cleared faster in the brain of normal mice”, the “passage through the blood-brain barrier” value was “can effectively pass through the blood-brain barrier” and the “time” value came to 2 min.

As for `CN(C)c1ccc(/C=N/N=C/c2ccc(OCCOCCOCC[18F])nc2)cc1` [[18F]93], the “biodistribution, blood” value in data set [1] (setting [2]) amounted to 3.53 ± 0.24 % ID/g; in data set [1] (setting [3]), 3.16 ± 1.00 % ID/g; in data set [1] (setting [4]), 3.64 ± 0.29 % ID/g; in data set [1] (setting [5]), 2.46 ± 0.33 % ID/g. Further, the “biodistribution, brain” value in data set [1] (setting [2]) stood at 11.39 ± 1.08 % ID/g; in data set [1] (setting [3]) it was 5.55 ± 0.37 % ID/g; in data set [1] (setting [4]), 2.41 ± 0.22 % ID/g; in data set [1] (setting [5]), 1.44 ± 0.15 % ID/g. Also, the “clearance from the brain” value in data set [1] is listed as “cleared faster in the brain of normal mice”. For the same molecule, the “passage through the blood-brain barrier” value in data set [1] is given as “can effectively pass through the blood-brain barrier”. Also, the “time” value in data set [1] was 2 min.

In the case of `CNc1ccc(/C=N/N=C/c2ccc(OCCOCCOCC[18F])nc2)cc1` [[18F]94], in data set [1] (setting [2]), the “biodistribution, blood” value came to 4.30 ± 0.09 % ID/g and the “biodistribution, brain” value worked out at 8.59 ± 0.57 % ID/g. Besides, in data set [1] (setting [3]), the “biodistribution, blood” value worked out at 3.40 ± 0.28 % ID/g and the “biodistribution, brain” value is 4.09 ± 0.38 % ID/g. For the same molecule, in data set [1] (setting [4]), the “biodistribution, blood” value is listed as 3.66 ± 0.18 % ID/g and the “biodistribution, brain” value stood at 2.40 ± 0.15 % ID/g. Also, in data set [1] (setting [5]), the “biodistribution, blood” value came out at 2.59 ± 0.15 % ID/g and the “biodistribution, brain” value worked out at 1.36 ± 0.13 % ID/g. Further, in data set [1], the “clearance from the brain” value is “cleared faster in the brain of normal mice”, the “passage through the blood-brain barrier” value is reported as “can effectively pass through the blood-brain barrier” and the “time” value is 2 min.
